Consider eight cell lines from the supplement of paper PMC10307832.

Common to all, as to assay: relative viability (nuclei count vs DMSO), 5 days (fraction); higher = more cells survive
Compound in assay [1]: CN1CCC(CC1)OC2=CC(=C(C=C2)NC3=NC=C4C(=N3)N(C(=O)N4C)C5CCCC5)OC [AZ3146] + C[C@]1(O)C[C@@H](c2nc(-c3ccc4ccc(-c5ccccc5)nc4c3)c3c(N)nccn32)C1 [Linsitinib] (partner 1 µM)
The procedure, abridged: (§1)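 Relative viability divides the nuclei count in treated wells by that in vehicle wells. Lung cancer cell lines were seeded in 1536-well plates, dosed by pin tool the next day, and fixed and stained after 5 days in one step with final 0.05% Triton X-100, 1% formaldehyde and 1 ug/ml Hoechst. Dosing was a single drug or a fixed anchor-drug dose plus five library-drug doses (not always all listed) in √10 steps, and values are medians of duplicate plates imaged at 4×.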

Compound in assay [2]: CN1CCC(CC1)OC2=CC(=C(C=C2)NC3=NC=C4C(=N3)N(C(=O)N4C)C5CCCC5)OC [AZ3146] + Nc1ncn([C@H]2C[C@H](O)[C@@H](CO)O2)c(=O)n1 [Decitabine] (partner 2 µM)
The method, boiled down: as §1

Compound in assay [3]: CCOC(=O)CCNc1cc(N2CCc3ccccc3CC2)nc(-c2ccccn2)n1 [GSK-J4] + CCNC(=O)c1noc(-c2cc(C(C)C)c(O)cc2O)c1-c1ccc(CN2CCOCC2)cc1 [Luminespib] (partner 0.01 µM)
The procedure, abridged:
as §1

Compound in assay [4]: CN1CCC(CC1)OC2=CC(=C(C=C2)NC3=NC=C4C(=N3)N(C(=O)N4C)C5CCCC5)OC [AZ3146] + CC(=O)Nc1cccc(-n2c(=O)n(C3CC3)c(=O)c3c(Nc4ccc(I)cc4F)n(C)c(=O)c(C)c32)c1 [Trametinib] (partner 0.02 µM)
The method, boiled down: as §1

On to Calu-6, for which the relative viability came to 0.925 in assay [1] (first compound 0.08 µM); 0.925 in assay [1] (first compound 0.253 µM); 0.928 in assay [1] (first compound 0.8 µM); 0.948 in assay [1] (first compound 2.53 µM); 0.971 in assay [1] (first compound 8 µM).

On to ChaGo-K-1, for which the relative viability in assay [2] (first compound 0.08 µM) stood at 0.509; in assay [2] (first compound 0.253 µM) it was 0.502; in assay [2] (first compound 0.8 µM) it was 0.509; in assay [2] (first compound 2.53 µM), 0.531; in assay [2] (first compound 8 µM), 0.501; in assay [3] (first compound 0.5 µM), 0.56. The relative viability in assay [3] (first compound 1.581 µM) came to 0.627; in assay [3] (first compound 5 µM) it was 0.594; in assay [3] (first compound 15.81 µM) it was 0.607; in assay [3] (first compound 50 µM) it was 0.45; in assay [4] (first compound 0.08 µM), 0.826; in assay [4] (first compound 0.253 µM), 0.895. Also, the relative viability in assay [4] (first compound 0.8 µM) came out at 0.836; in assay [4] (first compound 2.53 µM), 0.892; in assay [4] (first compound 8 µM), 0.957.

As for EBC-1, the relative viability in assay [1] (first compound 0.08 µM) amounted to 0.906; in assay [1] (first compound 0.253 µM), 0.707; in assay [1] (first compound 0.8 µM) it was 0.899; in assay [1] (first compound 2.53 µM), 0.879; in assay [1] (first compound 8 µM), 0.991.

Regarding EKVX, the relative viability in assay [2] (first compound 0.08 µM) worked out at 0.285; in assay [2] (first compound 0.253 µM), 0.304; in assay [2] (first compound 0.8 µM), 0.381; in assay [2] (first compound 2.53 µM) it was 0.319; in assay [2] (first compound 8 µM), 0.286; in assay [1] (first compound 0.08 µM) it was 0.945. In addition, the relative viability in assay [1] (first compound 0.253 µM) was 1; in assay [1] (first compound 0.8 µM) it was 0.819; in assay [1] (first compound 2.53 µM), 1.09; in assay [1] (first compound 8 µM) it was 0.95; in assay [3] (first compound 0.5 µM), 0.824; in assay [3] (first compound 1.581 µM) it was 0.725. For the same cell line, the relative viability in assay [3] (first compound 5 µM) was 0.977; in assay [3] (first compound 15.81 µM) it was 0.755; in assay [3] (first compound 50 µM), 0.811; in assay [4] (first compound 0.08 µM), 0.331; in assay [4] (first compound 0.253 µM) it was 0.305; in assay [4] (first compound 0.8 µM) it was 0.202. Also, the relative viability came out at 0.345 in assay [4] (first compound 2.53 µM) and 0.332 in assay [4] (first compound 8 µM).

Take EMC-BAC-2: the relative viability worked out at 1.09 in assay [2] (first compound 0.8 µM); 1.02 in assay [2] (first compound 2.53 µM); 0.907 in assay [2] (first compound 8 µM); 0.81 in assay [1] (first compound 0.08 µM); 0.756 in assay [1] (first compound 0.253 µM); 0.836 in assay [1] (first compound 0.8 µM). For the same cell line, the relative viability in assay [1] (first compound 2.53 µM) is 0.791; in assay [1] (first compound 8 µM), 0.82; in assay [3] (first compound 0.5 µM), 1.21; in assay [3] (first compound 1.581 µM), 1.09; in assay [3] (first compound 5 µM), 0.985; in assay [3] (first compound 15.81 µM) it was 1.09. Moreover, the relative viability came to 0.676 in assay [3] (first compound 50 µM), 0.89 in assay [4] (first compound 0.8 µM), 0.921 in assay [4] (first compound 2.53 µM) and 0.844 in assay [4] (first compound 8 µM).

On to EPLC-272H, for which the relative viability in assay [2] (first compound 0.08 µM) came out at 0.375; in assay [2] (first compound 0.253 µM) it was 0.379; in assay [2] (first compound 0.8 µM), 0.396; in assay [2] (first compound 2.53 µM), 0.368; in assay [2] (first compound 8 µM) it was 0.418; in assay [1] (first compound 0.08 µM), 0.988. Also, the relative viability in assay [1] (first compound 0.253 µM) was determined as 1.07; in assay [1] (first compound 0.8 µM), 1.16; in assay [1] (first compound 2.53 µM) it was 1.07; in assay [1] (first compound 8 µM), 1.24; in assay [3] (first compound 0.5 µM), 0.263; in assay [3] (first compound 1.581 µM), 0.408. Moreover, the relative viability in assay [3] (first compound 5 µM) was 0.346; in assay [3] (first compound 15.81 µM), 0.203; in assay [3] (first compound 50 µM) it was 0.173; in assay [4] (first compound 0.08 µM) it was 0.312; in assay [4] (first compound 0.253 µM) it was 0.281; in assay [4] (first compound 0.8 µM) it was 0.272. For the same cell line, the relative viability was 0.268 in assay [4] (first compound 2.53 µM) and 0.247 in assay [4] (first compound 8 µM).

As to H3255, the relative viability was determined as 0.604 in assay [2] (first compound 0.08 µM); 0.805 in assay [2] (first compound 0.253 µM); 0.562 in assay [2] (first compound 0.8 µM); 0.678 in assay [2] (first compound 2.53 µM); 0.604 in assay [2] (first compound 8 µM); 0.9 in assay [1] (first compound 0.08 µM). Moreover, the relative viability in assay [1] (first compound 0.253 µM) stood at 0.987; in assay [1] (first compound 0.8 µM) it was 0.961; in assay [1] (first compound 2.53 µM), 0.998; in assay [1] (first compound 8 µM), 0.902; in assay [3] (first compound 0.5 µM), 0.752; in assay [3] (first compound 1.581 µM), 0.726. Also, the relative viability is 0.693 in assay [3] (first compound 5 µM); 0.827 in assay [3] (first compound 15.81 µM); 0.683 in assay [3] (first compound 50 µM); 0.649 in assay [4] (first compound 0.08 µM); 0.57 in assay [4] (first compound 0.253 µM); 0.555 in assay [4] (first compound 0.8 µM). The relative viability was found to be 0.614 in assay [4] (first compound 2.53 µM) and 0.544 in assay [4] (first compound 8 µM).

In the case of HARA, the relative viability turned out to be 0.493 in assay [2] (first compound 0.08 µM); 0.563 in assay [2] (first compound 0.253 µM); 0.481 in assay [2] (first compound 0.8 µM); 0.487 in assay [2] (first compound 2.53 µM); 0.478 in assay [2] (first compound 8 µM); 0.821 in assay [1] (first compound 0.08 µM). In addition, the relative viability was found to be 0.95 in assay [1] (first compound 0.253 µM); 1.01 in assay [1] (first compound 0.8 µM); 0.993 in assay [1] (first compound 2.53 µM); 0.935 in assay [1] (first compound 8 µM); 0.585 in assay [3] (first compound 0.5 µM); 0.675 in assay [3] (first compound 15.81 µM). The relative viability in assay [3] (first compound 50 µM) stood at 0.49; in assay [4] (first compound 0.08 µM), 0.708; in assay [4] (first compound 0.253 µM), 0.491; in assay [4] (first compound 0.8 µM), 0.634; in assay [4] (first compound 2.53 µM), 0.858; in assay [4] (first compound 8 µM), 0.623.
